Each structure is given as a SMILES string. Where a name gives a salt, the structure may show the parent alone.

Usually IC50 stands for the concentration needed to halve the response being measured. A low value points to inhibition by little substance.

The test system of assay [1] is thoracic aorta. In words: Vasorelaxant effect on isolated vessels (rat thoracic aorta rings without endothelium, precontracted with noradrenalin). Details: species or system Wistar rats. To be noted: for Emax: Rattus norvegicus, maximum inhibition of noradrenalin effect, 10^-8 to 10^-4 M substance, read-out: Maximum Relaxation; for IC50: rat aorta, 10^-7 M noradrenalin contraction. The procedure: Vasorelaxant effect of the compounds according to the invention on isolated vessels.
Adult Wistar rats weighing between 250 and 350 g are anaesthetised by intraperitoneal injection of sodium pentobarbital (30 mg/kg). The thoracic aorta is rapidly removed and placed in a refrigerated and oxygenated solution of bicarbonate buffer of the Krebs-Ringer type (composition [mM]: NaCl, 118; KCl, 4.7; CaCl2, 2.5; MgSO4, 1.2; KH2 PO4, 1.2; NaHCO3, 25.0; disodium calcium salt of EDTA, 0.026; glucose 11.1). The aorta is dissected with the aim of removing the connective tissue and then cut into 6 rings (length 5-10 mm). The endothelium is removed by moderate abrasion of the intimal surface of the aortic segments with the aid of a pair of tweezers. These segments are then placed between two hooks in an isolated organ cell filled with 25 ml of bicarbonate buffer (pH 7.4), thermostat-controlled at 37° C. and oxygenated with the aid of a 95% O2 /5% CO2 mixture (pH 7.4). One of the hooks is fixed to a fixed point, while the second is connected to a transducer with the aim of measuring the variations in isometric voltage (expressed in grams). After an equilibration period of 30 min., the segments are progressively withdrawn so as to attain the level of base voltage for which the contractor response to noradrenalin (10^-7 M) is maximum (optimum voltage; average 2 g). The absence of endothelium is verified by addition of a single concentration of acetylcholine (10^-6 M), after precontraction of the vessels by noradrenalin (10^-7 M). The integrity of the vascular smooth muscle is also verified by adding a single concentration of a vasodilator whose response is independent of the presence of the endothelium, SIN-1 (10^-5 M). After this initial procedure, the aortas are washed, equilibrated for a period of 30 min and then recontracted (10^-7 M noradrenalin). The relaxant effect of the substance to be tested is then evaluated by adding increasing concentrations of this substance (from 10^-8 to 10^-4 M). The maximum inhibition of the concentration caused by noradrenalin (expressed as a percentage) is then calculated ("maximum relaxation"). When this maximum relaxation is greater than 50%, the concentration of substance tested producing a 50% inhibition of the maximum contraction (IC50) is calculated. Table V below collates the IC50 and the maximum relaxation percentages for the various compounds tested.

Assay [2] deals with anesthetised dogs. In words: Haemodynamic effects on anesthetised dogs. Format: in vivo, dogs (labrador/harrier cross). To be noted: dogs. The procedure:
Haemodynamic effects of the compounds according to the invention on anesthetised pigs or dogs
The dogs, weighing between 16 and 26 kg, are the progeny of a labrador/harrier cross.
In the case of dogs the anesthesia is induced by sodium pentobarbitol (45 mg/jg i.v.) and maintained with an i.v. perfusion (flow rate of 8 mg/kg/h).
The pigs or dogs are placed under artificial respiration in ambient air. Analysis of the blood gases (pO2, pCO2) is carried out at regular intervals and oxygen can be supplied via the respirator, if necessary.
The haemodynamic parameters recorded include the left ventricular pressure (LVP; Millar PC350 Tip catheter inserted via the carotid artery), systemic blood pressure (BPs, BPd; full catheter in a femoral artery), the end pressure of the left ventricular diastole (LVEDP), the ventricular contractility (LVPdp/dtmax) and the heart rate (HR).
Following an equilibration period of the order of 45 minutes, the compounds studied are administered intraduodenally (i.d.) or intraveinously (i.v.) to several animals (1 to 4). The haemodynamic variables are recorded continuously for 1 to 3 hours, as a function of the period of action of the compound.
The effects of the compounds studied are shown as the absolute difference with respect to the base value (bv) measured before administration of the compounds and are shown in Table VII (a,b,c).
An antianginal activity is estimated by a fall in the BPs and the LVEDP (fall in venous return).

For the molecule `O=C(N[C@H]1CO[C@H]2[C@@H]1OC[C@H]2O[N+](=O)[O-])[C@@H]1CSCN1` [Compound 40, 2-[[(4-L-Thiazolidinyl)carbonyl]amino]-2-deoxy-5-O-nitro-1,4:3,6-dianhydro-D-glucitol monohydrochloride], in assay [1], the Emax amounted to 38% and the IC50 is above 100 µM. In addition, in assay [2] (3 mg/kg i.v.), the “BPs (min), period of action” value is recorded as above 90 min; the “BPs, difference to base value” is on record as -10 mmHg; the “LVEDP (min), period of action” value is above 90 min; the “LVEDP, difference to base value” was -1,0 mmHg.

`CC(=O)NCSC[C@H](N)C(=O)N[C@H]1CO[C@H]2[C@@H]1OC[C@H]2O[N+](=O)[O-]` [Compound 42, S-[(Acetylamino)methyl]-L-cysteine amide of 2-amino-2-deoxy-5-O-nitro-1,4:3,6-dianhydro-D-glucitol monohydrochloride]: in assay [1], the Emax came out at 92% and the IC50 amounted to 33 µM. In assay [2] (10 mg/kg i.v.), the “BPs (min), period of action” value was above 90 min; the “BPs, difference to base value” is given as -10 mmHg; the “LVEDP (min), period of action” value turned out to be 0 min; the “LVEDP, difference to base value” is reported as 0,0 mmHg.

Consider `CC(C)(C)OC(=O)N1CSC[C@H]1C(=O)N[C@@H](Cc1ccccc1)C(=O)N[C@H]1CO[C@H]2[C@@H]1OC[C@@H]2O[N+](=O)[O-]` [Compound 65, 5-[[2-[[(3-t-butoxycarbonyl-4-L-thiazolidinyl)carbonyl]amino]-1-((2S)-2-benzyl)-oxoethyl]amino]-5-deoxy-2-O-nitro-1,4:3,6-dianhydro-L-iditol], for which, in assay [1], the Emax was found to be 100% and the IC50 came to 20 µM. Further, in assay [2] (3 mg/kg i.d.), the “BPs (min), period of action” value was determined as 0 min; the “BPs, difference to base value” is recorded as 0 mmHg; the “LVEDP (min), period of action” value is reported as 30 min; the “LVEDP, difference to base value” was 1,0 mmHg.

With `N[C@@H](Cc1ccccc1)C(=O)N[C@H]1CO[C@H]2[C@@H]1OC[C@@H]2O[N+](=O)[O-]` [Compound 12, L-phenylalanine amide of 5-amino-5-deoxy-2-O-nitro-1,4:3,6-dianhydro-L-iditol monohydrochloride], in assay [1], the Emax amounted to 100% and the IC50 was determined as 2.5 µM. Moreover, in assay [2] (3 mg/kg i.d.), the “BPs (min), period of action” value was above 240 min and the “BPs, difference to base value” was -30 mmHg.

As to `CC(C)[C@H](NC(=O)[C@@H]1CSCN1C(=O)OC(C)(C)C)C(=O)N[C@H]1CO[C@H]2[C@@H]1OC[C@@H]2O[N+](=O)[O-]` [Compound 63, 5-[[2-[[(3-t-butoxycarbonyl-4-L-thiazolidinyl)carbonyl]amino]-1-((2S)-2-isopropyl)-oxoethyl]amino]-5-deoxy-2-O-nitro-1,4:3,6-dianhydro-L-iditol], in assay [1], the Emax turned out to be 70% and half-maximal inhibition (IC50) required 70 µM. For the same molecule, in assay [2] (3 mg/kg i.v.), the “BPs (min), period of action” value is recorded as above 60 min; the “BPs, difference to base value” is on record as -20 mmHg; the “LVEDP (min), period of action” value is 60 min; the “LVEDP, difference to base value” is listed as -1,0 mmHg.

For `CC(=O)NCSC[C@H](N)C(=O)O[C@H]1CO[C@H]2[C@@H]1OC[C@H]2O[N+](=O)[O-]` [Compound 21, S-[(Acetylamino)methyl]-L-cysteine ester of 5-O-nitro-1,4:3,6-dianhydro-D-glucitol monohydrochloride], in assay [1], the Emax came to 31% and the IC50 amounted to 100 µM. Also, in assay [2] (3 mg/kg i.d.), the “BPs (min), period of action” value is listed as above 60 min; the “BPs, difference to base value” was -5 mmHg; the “LVEDP (min), period of action” value was above 60 min; the “LVEDP, difference to base value” is -2,0 mmHg.

As for `CC(C)(C)OC(=O)N1CSC[C@H]1C(=O)NCC(=O)N[C@H]1CO[C@H]2[C@@H]1OC[C@@H]2O[N+](=O)[O-]` [Compound 60], in assay [1], the Emax was determined as 53% and the IC50 was 87 µM. For the same molecule, in assay [2] (3 mg/kg i.d.), the “BPs (min), period of action” value was above 60 min; the “BPs, difference to base value” is listed as -15 mmHg; the “LVEDP (min), period of action” value was found to be 0 min; the “LVEDP, difference to base value” is 0,0 mmHg.

Take `O=C(N[C@H]1CO[C@H]2[C@@H]1OC[C@@H]2O[N+](=O)[O-])[C@@H]1CSCN1C(=O)[C@@H]1CSCN1` [Compound 78, 5-[[[(4R)-N-[(4-L-thiazolidinyl)carbonyl]-4-thiazolidinyl]carbonyl]amino]-5-deoxy-2-O-nitro-1,4:3,6-dianhydro-L-iditol monohydrochloride]: in assay [1], the Emax stood at 89% and the midpoint of inhibition, the IC50, lay at 20 µM. In assay [2] (3 mg/kg i.d.), the “BPs (min), period of action” value was found to be 150 min; the “BPs, difference to base value” is recorded as -13 mmHg; the “LVEDP (min), period of action” value turned out to be 90 min; the “LVEDP, difference to base value” was -1,0 mmHg.

In the case of `NCC(=O)N[C@H]1CO[C@H]2[C@@H]1OC[C@H]2O[N+](=O)[O-]` [Compound 16, Glycine amide of 2-amino-2-deoxy-5-O-nitro-1,4:3,6-dianhydro-D-glucitol monohydrochloride], in assay [1], the Emax was determined as 41% and the IC50 is above 100 µM. In assay [2] (10 mg/kg i.v.), the “BPs (min), period of action” value is given as above 30 min; the “BPs, difference to base value” was -5 mmHg; the “LVEDP (min), period of action” value is given as above 30 min; the “LVEDP, difference to base value” was -1,0 mmHg.

In the case of `O=C(CNC(=O)[C@@H]1CSCN1)N[C@H]1CO[C@H]2[C@@H]1OC[C@H]2O[N+](=O)[O-]` [Compound 71, 2-[[2-[[(4-L-thiazolidinyl)carbonyl]]amino]-1-oxoethyl]amino]-2-deoxy-5-O-nitro-1,4:3,6-dianhydro-D-glucitol monohydrochloride], in assay [1], the Emax stood at 66% and the IC50 was 70 µM. In assay [2] (3 mg/kg i.d.), the “BPs (min), period of action” value came to 0 min; the “BPs, difference to base value” is 0 mmHg; the “LVEDP (min), period of action” value is reported as above 60 min; the “LVEDP, difference to base value” is -5,5 mmHg.

`CC(C)(C)OC(=O)N1CSC[C@H]1C(=O)O[C@@H]1CO[C@H]2[C@@H]1OC[C@@H]2O[N+](=O)[O-]` [Compound 24, 5-O-[(3-t-Butoxycarbonyl-4-L-thiazolidinyl)carbonyl]-2-O-nitro-1,4:3,6-dianhydro-D-glucitol]: in assay [1], the Emax was determined as 100% and it took 20 µM to reach half-maximal inhibition (IC50). In assay [2] (3 mg/kg i.v.), the “BPs (min), period of action” value was above 30 min; the “BPs, difference to base value” is reported as -10 mmHg; the “LVEDP (min), period of action” value is recorded as 10 min; the “LVEDP, difference to base value” is 1,0 mmHg.

For `O=C(N[C@H]1CO[C@H]2[C@@H]1OC[C@@H]2O[N+](=O)[O-])[C@@H]1CCCN1` [Compound 14, L-Proline amide of 5-amino-5-deoxy-2-O-nitro-1,4:3,6-dianhydro-L-iditol monohydrochloride], in assay [1], the Emax was found to be 98% and the IC50 came to 14 µM. For the same molecule, in assay [2] (3 mg/kg i.v.), the “BPs (min), period of action” value is on record as above 90 min; the “BPs, difference to base value” is listed as -10 mmHg; the “LVEDP (min), period of action” value is reported as above 90 min; the “LVEDP, difference to base value” is reported as -2,0 mmHg.

Turning to `O=C(N[C@H]1CO[C@H]2[C@@H]1OC[C@H]2O[N+](=O)[O-])c1ccccc1SCc1ccccc1` [Compound 45], in assay [2] (3 mg/kg i.v.), the “BPs (min), period of action” value was above 120 min; the “BPs, difference to base value” was -10 mmHg; the “LVEDP (min), period of action” value was determined as 0 min; the “LVEDP, difference to base value” is recorded as 0,0 mmHg.

For the origin of these results see patent US5591758A, “Organic nitrates, processes for their preparation and their use in the treatment of cardiovascular diseases” (Laboratoires Hoechst, SA, priority 1991, dated 1997).
